Experimental data: the CheMixHub viscosity set

Assay: xn = mol fraction of the nth substance listed
Settings: 101.33 kPa

CC(N)CN (stereo not given) + OCCO
viscosity [mPa·s]
Settings | 298.15 K | 303.15 K | 308.15 K | 313.15 K | 318.15 K
x2 = 0.0513 | 1.89 | 1.66 | 1.4 | 1.33 | 1.23
x2 = 0.1024 | 2.46 | 2.17 | 1.8 | 1.69 | 1.53
x2 = 0.1534 | 3.22 | 2.9 | 2.34 | 2.19 | 1.98
x2 = 0.2043 | 4.66 | 3.91 | 3.1 | 2.84 | 2.51
x2 = 0.255 | 6.47 | 5.31 | 4.14 | 3.73 | 3.23
x2 = 0.3056 | 9.02 | 7.28 | 5.57 | 4.91 | 4.28
x2 = 0.356 | 12.47 | 9.89 | 7.43 | 6.42 | 5.39
x2 = 0.4064 | 17.12 | 13.17 | 9.78 | 8.33 | 6.89
x2 = 0.4566 | 22.35 | 17 | 12.38 | 10.39 | 8.36
x2 = 0.5066 | 27.55 | 20.91 | 15.09 | 12.54 | 10
x2 = 0.5565 | 32.68 | 24.47 | 17.48 | 14.47 | 11.46
x2 = 0.6063 | 36.17 | 26.99 | 19.26 | 15.91 | 12.62
x2 = 0.6556 | 37.44 | 28.04 | 20.15 | 16.67 | 13.25
x2 = 0.7055 | 36.53 | 27.76 | 20.09 | 16.66 | 13.32
x2 = 0.7549 | 34.46 | 26.24 | 19.07 | 15.99 | 12.78
x2 = 0.8042 | 32.78 | 24.03 | 17.71 | 14.9 | 11.97
x2 = 0.8533 | 28.17 | 21.54 | 15.99 | 13.67 | 11.17
x2 = 0.9024 | 24.94 | 18.68 | 14.07 | 12.16 | 10
x2 = 0.9512 | 20.88 | 16.21 | 12.23 | 10.67 | 8.83
